The source of these data is ChEMBL document CHEMBL1150737, “Antitumor agents, 90. Bruceantinoside C, a new cytotoxic quassinoid glycoside from Brucea antidysenterica” (1987).

≈ marks a conversion by molar mass, not a printed value.

For test [1], the system named is P388. As to the kind of experiment: Cytotoxicity against mouse P388 cells. Type of test: functional. The following applies: read-out: ED50 (the source's name).
In test [2] the test system is L1210. Description: Cytotoxicity against mouse L1210 cells. Type of test: functional. Conditions: read-out: ED50 (the source's name).

As to `O=c1[nH]cc(F)c(=O)[nH]1` [FLUOROURACIL], the EC50 in test [1] amounted to 3.72 µg/mL (≈ 28.6 µM); in test [2], 1.94 µg/mL (≈ 14.9 µM).
For `COC(=O)[C@]12OC[C@]34[C@H]([C@@H](O)[C@@H]1O)[C@@]1(C)C(=O)C(O[C@@H]5O[C@H](CO)[C@@H](O)[C@H](O)[C@H]5O)=C[C@@H](C)[C@@H]1C[C@H]3OC(=O)[C@H](OC(=O)/C=C(\C)C(C)(C)OC(C)=O)[C@@H]24` [Bruceantinoside C], the EC50 in test [1] amounted to 2.12 µg/mL (≈ 2.76 µM); in test [2], 3.5 µg/mL (≈ 4.55 µM).
On to `COC(=O)[C@]12OC[C@]34[C@H]([C@@H](O)[C@@H]1O)[C@@]1(C)C=C(O[C@@H]5O[C@H](CO)[C@@H](O)[C@H](O)[C@H]5O)C(=O)[C@@H](C)[C@@H]1C[C@H]3OC(=O)[C@H](OC(=O)/C=C(\C)C(C)(C)OC(C)=O)[C@@H]24` [Yadanzioside G], for which the EC50 in test [1] worked out at 1.25 µg/mL (≈ 1.63 µM); in test [2] it was 2.58 µg/mL (≈ 3.36 µM).
For the molecule `COC(=O)[C@]12OC[C@]34[C@H]([C@@H](O)[C@@H]1O)[C@@]1(C)C(=O)C(O[C@@H]5O[C@H](CO)[C@@H](O)[C@H](O)[C@H]5O)=C[C@@H](C)[C@@H]1C[C@H]3OC(=O)[C@H](OC(=O)/C=C(\C)C(C)C)[C@@H]24` [Yadanzioside N], the EC50 in test [1] worked out at 2.24 µg/mL (≈ 3.15 µM); in test [2], 4.56 µg/mL (≈ 6.42 µM).
